Assay results: patent US20250235545A1, “POLYPEPTIDE CONJUGATE AND USE THEREOF” (SHANGHAI CHIXI BIOMEDICAL TECHNOLOGY CO., LTD, priority 2024, published 2025)
In brackets after ≈: the same amount, converted by molar mass. Read-outs that look alike come from different tables or passages of the source. Where a SMILES comes first, the peptide text is derived from it. The star is where a group is joined. X2 = CCCCN(CCc1c2c(nc3ccccc13)-c1cc3c(c(=O)n1C2)COC(=O)[C@]3(O)CC)*; X4 = CCCN(CCc1c2c(nc3ccccc13)-c1cc3c(c(=O)n1C2)COC(=O)[C@]3(O)CC)*; X5 = CC[C@@]1(O)C(=O)OCc2c1cc1n(c2=O)Cc2c-1nc1ccccc1c2CCN(CC(C)C)*; Propanoyl(3-maleimido) = O=C1C=CC(=O)N1CCC(=O)*; PEG6 = NCCOCCOCCOCCOCCOCCOCCC(=O)O

What was measured:
[1] = Tumor homogenate activation efficiency, small cell lung cancer tissue (Example 28); type: in vitro ADME; conditions: pH 5.0, 37° C., 2 h; Table 5
In short: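 Polypeptide conjugate at 1 mg/ml in 50 mM MES, 250 mM NaCl, pH 5.0 incubated with 100 μg small cell lung cancer tissue homogenate at 37° C. for 2 h. HPLC quantified Belotecan release as Belotecan peak area over total area of Belotecan plus all Belotecan-containing compounds.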

[2] = tested on: A2780 ovarian cancer tumor model; experiment: Efficacy in animal model of A2780 ovarian cancer, 30 mg/kg once a week for two weeks (Example 41); type: in vivo, BALB/c mice
Procedure: Test objective: To further compare the antitumor efficacy of different polypeptide Linkers in an animal tumor model of A2780 ovarian cancer.
Test drug: Polypeptide conjugate and normal saline control group.
8×10^6 corresponding cells were injected into right axillas of nude mice subcutaneously. […] The negative control group was administered normal saline. Administration was performed once a week for two weeks.

SJSA-1 (sarcoma tissue) = experiment: cells; type: cell-based; conditions: for IC50 Sarcoma tissue (SJSA-1): CCK8, 48 h, Table 6
In short: (§1)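 Cells in RPMI1640 or high-glucose DMEM with 10% FBS, P/S and 1 mM sodium pyruvate were seeded at 5,000 cells/well into graded drug concentrations, with 0.1% DMSO controls, in triplicate. After 48 h at 37° C/5% CO2, CCK8 was added for about 2 h and absorbance read at 450 nm; survival and IC50 were calculated.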

A2780 (ovarian cancer) = experiment: cells; type: cell-based; conditions: for IC50 Ovarian cancer tissue (A2780): CCK8, 48 h, Table 6
In short: as §1

[3] = tested on: SKBR3 (breast cancer tissue); experiment: cells; type: cell-based; conditions: for IC50 Breast cancer tissue (SKBR3): CCK8, 48 h, Table 6
In short: as §1

[4] = tested on: A549 (non-small cell lung cancer); experiment: cells; type: cell-based; conditions: for IC50 Non-small cell lung cancer tissue (A549): CCK8, 48 h, Table 6
In short: as §1

[5] = MTD determination in mice (Examples 27, 36, 44); type: in vivo; conditions: female, mouse, in vivo, mice, monitored for 14 d; for MTD: read-out: MTD
Description: Test animals: 6-8 weeks old mice, all female; mice were grouped randomly, with six mice in each group, administered with drugs at different concentration gradients separately and monitored for 14 d. A mouse was euthanized at a loss of 20% of its initial weight and deemed to have died of poisoning.

## CC[C@@]1(O)C(=O)OCC2=C1C=C1c3nc4ccccc4c(CCN(C(=O)OCc4ccc(NC(=O)[C@H](CC(N)=O)NC(=O)[C@H](C)NC(=O)[C@H](C)NC(=O)CCOCCOCCOCCOCCOCCOCCNC(=O)CCN5C(=O)C=CC5=O)cc4)C(C)C)c3CN1C2 [MI-6PEG-AAN-PAB-Belotecan]
[1]
  Percentage of release efficiency (%) Small cell lung cancer tissue (NCI-H841): 61.5%
[2]
  A2780 (ovarian cancer) mean tumor volume (mm^3) Day 1: 151.03 mm^3
  A2780 (ovarian cancer) mean tumor volume (mm^3) Day 4: 282.87 mm^3
  A2780 (ovarian cancer) mean tumor volume (mm^3) Day 7: 579.35 mm^3
  A2780 (ovarian cancer) mean tumor volume (mm^3) Day 10: 837.75 mm^3
  A2780 (ovarian cancer) mean tumor volume (mm^3) Day 14: 1135.00 mm^3
  Growth rate (%) of A2780 (ovarian cancer) on Day 14: 751.51%
  Mouse weight (%) on Day 14: +1.2%
SJSA-1 (sarcoma tissue); 48 h
  IC50 SJSA-1 (sarcoma tissue): 0.26 µg/mL (≈ 0.198 µM)
A2780 (ovarian cancer); 48 h
  IC50 A2780 (ovarian cancer): 0.34 µg/mL (≈ 0.259 µM)
[3]; 48 h
  IC50 SKBR3 (breast cancer tissue): 0.40 µg/mL (≈ 0.305 µM)
[4]; 48 h
  IC50 A549 (non-small cell lung cancer): 0.39 µg/mL (≈ 0.297 µM)
[5]; Table 15 (Example 44), six per group
  MTD: 100 mg/kg
[5]; Table 4
  MTD: 100 mg/kg

## CCCN(CCc1c2c(nc3ccccc13)-c1cc3c(c(=O)n1C2)COC(=O)[C@]3(O)CC)C(=O)[C@H](CC(C)C)NC(=O)[C@H](CC(N)=O)NC(=O)[C@H](C)NC(=O)[C@H](C)NC(=O)CCOCCOCCOCCOCCOCCOCCNC(=O)CCN1C(=O)C=CC1=O [MI-6PEG-AANL-D3] ({Propanoyl(3-maleimido)-PEG6}-AANL-X4)
[2]
  A2780 (ovarian cancer) mean tumor volume (mm^3) Day 1: 134.07 mm^3
  A2780 (ovarian cancer) mean tumor volume (mm^3) Day 4: 387.76 mm^3
  A2780 (ovarian cancer) mean tumor volume (mm^3) Day 7: 768.59 mm^3
  A2780 (ovarian cancer) mean tumor volume (mm^3) Day 10: 998.38 mm^3
  A2780 (ovarian cancer) mean tumor volume (mm^3) Day 14: 1508.23 mm^3
  Growth rate (%) of A2780 (ovarian cancer) on Day 14: 1124.96%
  Mouse weight (%) on Day 14: +12.2%
SJSA-1 (sarcoma tissue)
  IC50 Sarcoma tissue (SJSA-1): 1.52 µg/mL (≈ 1.18 µM)
A2780 (ovarian cancer)
  IC50 Ovarian cancer tissue (A2780): 1.15 µg/mL (≈ 0.892 µM)
[3]
  IC50 Breast cancer tissue (SKBR3): 2.56 µg/mL (≈ 1.99 µM)
[4]
  IC50 Non-small cell lung cancer tissue (A549): 1.87 µg/mL (≈ 1.45 µM)
[5]; Table 9
  MTD at 14 d: 200 mg/kg

## CCCCN(CCc1c2c(nc3ccccc13)-c1cc3c(c(=O)n1C2)COC(=O)[C@]3(O)CC)C(=O)[C@H](CC(C)C)NC(=O)[C@H](CC(N)=O)NC(=O)[C@H](C)NC(=O)[C@H](C)NC(=O)CCOCCOCCOCCOCCOCCOCCNC(=O)CCN1C(=O)C=CC1=O [MI-6PEG-AANL-D4] ({Propanoyl(3-maleimido)-PEG6}-AANL-X2)
[2]
  A2780 (ovarian cancer) mean tumor volume (mm^3) Day 1: 133.89 mm^3
  A2780 (ovarian cancer) mean tumor volume (mm^3) Day 4: 309.51 mm^3
  A2780 (ovarian cancer) mean tumor volume (mm^3) Day 7: 703.24 mm^3
  A2780 (ovarian cancer) mean tumor volume (mm^3) Day 10: 894.45 mm^3
  A2780 (ovarian cancer) mean tumor volume (mm^3) Day 14: 1345.03 mm^3
  Growth rate (%) of A2780 (ovarian cancer) on Day 14: 1004.58%
  Mouse weight (%) on Day 14: +14.5%
SJSA-1 (sarcoma tissue)
  IC50 Sarcoma tissue (SJSA-1): 2.94 µg/mL (≈ 2.26 µM)
A2780 (ovarian cancer)
  IC50 Ovarian cancer tissue (A2780): 2.47 µg/mL (≈ 1.89 µM)
[3]
  IC50 Breast cancer tissue (SKBR3): 3.94 µg/mL (≈ 3.02 µM)
[4]
  IC50 Non-small cell lung cancer tissue (A549): 3.72 µg/mL (≈ 2.85 µM)

## CC[C@@]1(O)C(=O)OCc2c1cc1n(c2=O)Cc2c-1nc1ccccc1c2CCN(CC(C)C)C(=O)[C@H](CC(C)C)NC(=O)[C@H](CC(N)=O)NC(=O)[C@H](C)NC(=O)[C@H](C)NC(=O)CCOCCOCCOCCOCCOCCOCCNC(=O)CCN1C(=O)C=CC1=O [MI-6PEG-AANL-D5] ({Propanoyl(3-maleimido)-PEG6}-AANL-X5)
[2]
  A2780 (ovarian cancer) mean tumor volume (mm^3) Day 1: 134.01 mm^3
  A2780 (ovarian cancer) mean tumor volume (mm^3) Day 4: 254.52 mm^3
  A2780 (ovarian cancer) mean tumor volume (mm^3) Day 7: 612.55 mm^3
  A2780 (ovarian cancer) mean tumor volume (mm^3) Day 10: 730.28 mm^3
  A2780 (ovarian cancer) mean tumor volume (mm^3) Day 14: 1116.71 mm^3
  Growth rate (%) of A2780 (ovarian cancer) on Day 14: 833.30%
  Mouse weight (%) on Day 14: +7.9%
SJSA-1 (sarcoma tissue)
  IC50 Sarcoma tissue (SJSA-1): 1.58 µg/mL (≈ 1.21 µM)
A2780 (ovarian cancer)
  IC50 Ovarian cancer tissue (A2780): 1.13 µg/mL (≈ 0.867 µM)
[3]
  IC50 Breast cancer tissue (SKBR3): 2.20 µg/mL (≈ 1.69 µM)
[4]
  IC50 Non-small cell lung cancer tissue (A549): 1.34 µg/mL (≈ 1.03 µM)
